Results on 24 molecules are retold here after patent US9187472B2 (AbbVie Inc., priority 2012, dated 2015).

Usually IC50 stands for the midpoint of a concentration-inhibition curve. A low value points to higher potency.

The test deals with PC3 cells. In words: NAMPT Cell Proliferation Assay. It counts as cell-based. As to conditions: Homo sapiens, PC-3, 120 h, 5 days incubation, cell viability by Cell Titer Glo. In short, it runs like this:
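Seed PC3 at 500 cells/well (RPMI, 10% HI-FBS), attach overnight; add compound, 10-fold series 10 μM → 1×10^−5 μM; incubate 5 d, 37° C/5% CO2; luminescent viability readout; fit % inhibition sigmoidally for IC50.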
(In general: ATP-based viability assays read luminescence as a measure of living cells.)
Molecule `CCc1nc(C(=O)N2CCC(c3ccc(NC(=O)NCc4ccn5ccnc5c4)cc3)CC2)cs1` [Example 1058, 1-(4-{1-[(2-ethyl-1,3-thiazol-4-yl)carbonyl]piperidin-4-yl}phenyl)-3-(imidazo[1,2-a]pyridin-7-ylmethyl)urea] came in with an IC50 of 2.49 nM.
With `Cc1cc(C(=O)N2CCC(c3ccc(NC(=O)NCc4ccn5ccnc5c4)cc3)CC2)cnc1C` [Example 1059, 1-(4-{1-[(5,6-dimethylpyridin-3-yl)carbonyl]piperidin-4-yl}phenyl)-3-(imidazo[1,2-a]pyridin-7-ylmethyl)urea], the IC50 was 16.4 nM.
To `O=C(NCc1ccn2ccnc2c1)Nc1ccc(C2CCN(C(=O)c3cccc4ncsc34)CC2)cc1` [Example 1060, 1-{4-[1-(1,3-benzothiazol-7-ylcarbonyl)piperidin-4-yl]phenyl}-3-(imidazo[1,2-a]pyridin-7-ylmethyl)urea] belongs 2.29 nM; to `O=C(NCc1ccn2ccnc2c1)c1ccc(C2CCN(C(=O)c3cc(Cl)ncc3F)CC2)cc1` [Example 1061, 4-{1-[(2-chloro-5-fluoropyridin-4-yl)carbonyl]piperidin-4-yl}-N-(imidazo[1,2-a]pyridin-7-ylmethyl)benzamide], 7.84 nM.
Next, `O=C(NCc1ccn2ccnc2c1)c1ccc(C2CCN(C(=O)c3cc(C4CC4)no3)CC2)cc1` [Example 1062, 4-{1-[(3-cyclopropyl-1,2-oxazol-5-yl)carbonyl]piperidin-4-yl}-N-(imidazo[1,2-a]pyridin-7-ylmethyl)benzamide]: 17 nM.
Molecule `COc1ccsc1C(=O)N1CCC(c2ccc(C(=O)NCc3ccn4ccnc4c3)cc2)CC1` [Example 1063, N-(imidazo[1,2-a]pyridin-7-ylmethyl)-4-{1-[(3-methoxythiophen-2-yl)carbonyl]piperidin-4-yl}benzamide] registered an IC50 of 1.89 nM.
The molecule `Cc1oc(C(C)C)cc1C(=O)N1CCC(c2ccc(C(=O)NCc3ccn4ccnc4c3)cc2)CC1` [Example 1064, N-(imidazo[1,2-a]pyridin-7-ylmethyl)-4-(1-{[2-methyl-5-(propan-2-yl)furan-3-yl]carbonyl}piperidin-4-yl)benzamide] returned an IC50 of 4.12 nM.
As to `CC(Oc1cccc(F)c1)C(=O)N1CCC(c2ccc(NC(=O)NCc3ccn4ccnc4c3)cc2)CC1` (stereo not drawn) [Example 1065, 1-(4-{1-[2-(3-fluorophenoxy)propanoyl]piperidin-4-yl}phenyl)-3-(imidazo[1,2-a]pyridin-7-ylmethyl)urea], it took 1.43 nM to reach half-maximal inhibition (IC50).
In turn, `O=C(NCc1ccn2ccnc2c1)Nc1ccc(C2CCN(C(=O)c3ncc(F)cc3F)CC2)cc1` [Example 1066, 1-(4-{1-[(3,5-difluoropyridin-2-yl)carbonyl]piperidin-4-yl}phenyl)-3-(imidazo[1,2-a]pyridin-7-ylmethyl)urea] had an IC50 of 5.7 nM.
Take `CC(C)(C)OC(=O)N1CCC(c2ccc(NC(=O)Cc3ccn4ccnc4c3)c(F)c2)CC1` [Example 1067, tert-butyl 4-{3-fluoro-4-[(imidazo[1,2-a]pyridin-7-ylacetyl)amino]phenyl}piperidine-1-carboxylate]: the IC50 was found to be 370 nM.
For the molecule `O=C(NCc1ccn2ccnc2c1)c1ccc(C2CCN(C(=O)N3CCCCC3)CC2)cc1` [Example 1068, N-(imidazo[1,2-a]pyridin-7-ylmethyl)-4-[1-(piperidin-1-ylcarbonyl)piperidin-4-yl]benzamide], the IC50 worked out at 5.77 nM.
Molecule `O=C(NCc1ccn2ccnc2c1)Nc1ccc(C2CCN(C(=O)c3ccccc3)CC2)cc1F` [Example 1069, 1-[4-(1-benzoylpiperidin-4-yl)-2-fluorophenyl]-3-(imidazo[1,2-a]pyridin-7-ylmethyl)urea] displayed an IC50 of 1.23 nM.
`CC(C)(C)C(=O)N1CCC(c2ccc(NC(=O)NCc3ccn4ccnc4c3)c(F)c2)CC1` [Example 1070, 1-{4-[1-(2,2-dimethylpropanoyl)piperidin-4-yl]-2-fluorophenyl}-3-(imidazo[1,2-a]pyridin-7-ylmethyl)urea]: the IC50 worked out at 0.857 nM.
Consider `CC(C)(C)CC(=O)N1CCC(c2ccc(NC(=O)NCc3ccn4ccnc4c3)c(F)c2)CC1` [Example 1071, 1-{4-[1-(3,3-dimethylbutanoyl)piperidin-4-yl]-2-fluorophenyl}-3-(imidazo[1,2-a]pyridin-7-ylmethyl)urea], for which inhibition was half-maximal at 0.473 nM (IC50).
To `CC(C)CCC(=O)N1CCC(c2ccc(NC(=O)NCc3ccn4ccnc4c3)c(F)c2)CC1` [Example 1072, 1-{2-fluoro-4-[1-(4-methylpentanoyl)piperidin-4-yl]phenyl}-3-(imidazo[1,2-a]pyridin-7-ylmethyl)urea] belongs 6.24 nM; to `CC[C@H](C)C(=O)N1CCC(c2ccc(NC(=O)NCc3ccn4ccnc4c3)c(F)c2)CC1` [Example 1073, 1-(2-fluoro-4-{1-[(2S)-2-methylbutanoyl]piperidin-4-yl}phenyl)-3-(imidazo[1,2-a]pyridin-7-ylmethyl)urea], 3.88 nM.
With `O=C(NCc1ccn2ccnc2c1)Nc1ccc(C2CCN(C(=O)C3CCOCC3)CC2)cc1F` [Example 1074, 1-{2-fluoro-4-[1-(tetrahydro-2H-pyran-4-ylcarbonyl)piperidin-4-yl]phenyl}-3-(imidazo[1,2-a]pyridin-7-ylmethyl)urea], 14.4 nM corresponded to half-maximal inhibition (IC50).
For the molecule `O=C(NCc1ccn2ccnc2c1)Nc1ccc(C2CCN(C(=O)c3ccccn3)CC2)cc1F` [Example 1075, 1-{2-fluoro-4-[1-(pyridin-2-ylcarbonyl)piperidin-4-yl]phenyl}-3-(imidazo[1,2-a]pyridin-7-ylmethyl)urea], the IC50 amounted to 7.62 nM.
As for `N#Cc1ccccc1C(=O)N1CCC(c2ccc(NC(=O)NCc3ccn4ccnc4c3)c(F)c2)CC1` [Example 1076, 1-{4-[1-(2-cyanobenzoyl)piperidin-4-yl]-2-fluorophenyl}-3-(imidazo[1,2-a]pyridin-7-ylmethyl)urea], half-maximal inhibition (IC50) required 5.7 nM.
`CN(C)C(=O)N1CCC(c2ccc(C(=O)NCc3ccn4ccnc4c3)cc2)CC1` [Example 1077, 4-{4-[(imidazo[1,2-a]pyridin-7-ylmethyl)carbamoyl]phenyl}-N,N-dimethylpiperidine-1-carboxamide] registered an IC50 of 69.1 nM.
In turn, `CC(C)C(=O)N1CCC(c2ccc(NC(=O)NCc3ccn4ccnc4c3)c(F)c2)CC1` [Example 1078, 1-{2-fluoro-4-[1-(2-methylpropanoyl)piperidin-4-yl]phenyl}-3-(imidazo[1,2-a]pyridin-7-ylmethyl)urea] had an IC50 of 7.61 nM.
In turn, `O=C(CC1CCCC1)Nc1ccc(C(=O)NCc2cn3ccnc3cc2F)cc1` [Example 1079, 4-[(cyclopentylacetyl)amino]-N-[(7-fluoroimidazo[1,2-a]pyridin-6-yl)methyl]benzamide] yielded an IC50 of 18.2 nM.
To `CC(C)Cn1cc(-c2ccc(C(=O)NCc3cn4ccnc4cc3F)s2)cn1` [Example 1080, N-[(7-fluoroimidazo[1,2-a]pyridin-6-yl)methyl]-5-[1-(2-methylpropyl)-1H-pyrazol-4-yl]thiophene-2-carboxamide] belongs 3.41 nM; to `O=C(Cc1ccn2ccnc2c1)Nc1ccc(C2CCN(C(=O)c3ccccc3)CC2)cc1F` [Example 1081, N-[4-(1-benzoylpiperidin-4-yl)-2-fluorophenyl]-2-(imidazo[1,2-a]pyridin-7-yl)acetamide], 195 nM.
